According to the NIST ThermoML archive (doi:10.1016/j.jct.2008.07.013):

Columns and labels:
[1] = Liquid, Alternating current cell with electrodes
[2] = molar heat capacity at constant pressure; details: 101.33 kPa, Liquid, Small sample (50 mg) DSC

CCn1cc[n+](C)c1.N#CN=C=[N-] [1-ethyl-3-methylimidazolium dicyanamide]
Details | electrical conductivity, [1] [S/m] | molar heat capacity at constant pressure, [2] [J/K/mol]
293.2 K | 1.89 | –
298.2 K | 2.2 | –
303.2 K | 2.55 | 328.01
308.2 K | 2.9 | 329.96
313.2 K | 3.29 | 332.97
318.2 K | 3.68 | 335.1
323.2 K | 4.1 | 338.64
328.2 K | 4.54 | 340.77
333.2 K | 5.02 | 342.72
338.2 K | – | 344.49
343.2 K | 5.93 | 346.44
348.2 K | – | 348.92
353.2 K | 6.86 | 351.58
358.2 K | – | 354.24

CCn1cc[n+](C)c1.COCCOCCOS(=O)(=O)[O-] [1-ethyl-3-methylimidazolium 2-(2-methoxyethoxy) ethylsulfate]
Details | electrical conductivity, [1] [S/m] | molar heat capacity at constant pressure, [2] [J/K/mol]
293.2 K | 0.11 | –
298.2 K | 0.147 | –
303.2 K | 0.194 | 526.38
308.2 K | 0.244 | 527.94
313.2 K | 0.307 | 529.49
318.2 K | 0.378 | 531.04
323.2 K | 0.459 | 532.59
328.2 K | 0.545 | 533.83
333.2 K | 0.641 | 535.7
338.2 K | – | 537.25
343.2 K | 0.859 | 538.8
348.2 K | – | 540.66
353.2 K | 1.12 | 542.21
358.2 K | – | 544.08

CCn1cc[n+](C)c1.O=S(=O)([O-])C(F)(F)F [1-ethyl-3-methylimidazolium trifluoromethanesulfonate]
Details | electrical conductivity, [1] [S/m] | molar heat capacity at constant pressure, [2] [J/K/mol]
293.2 K | 0.834 | –
298.2 K | 0.979 | –
303.2 K | 1.16 | 379.42
308.2 K | 1.34 | 381.5
313.2 K | 1.52 | 383.33
318.2 K | 1.74 | 385.41
323.2 K | 1.94 | 387.49
328.2 K | 2.17 | 389.57
333.2 K | 2.42 | 391.65
338.2 K | – | 393.74
343.2 K | 2.94 | 395.82
348.2 K | – | 397.9
353.2 K | 3.51 | 399.72
358.2 K | – | 401.8

CCn1cc[n+](C)c1.F[B-](F)(F)F [1-ethyl-3-methylimidazolium tetrafluoroborate]
Details | electrical conductivity, [1] [S/m] | molar heat capacity at constant pressure, [2] [J/K/mol]
293.2 K | 1.38 | –
298.2 K | 1.57 | –
303.2 K | 1.789 | 306.26
308.2 K | 2.04 | 308.44
313.2 K | 2.32 | 310.61
318.2 K | 2.59 | 312.79
323.2 K | 2.91 | 314.38
328.2 K | 3.25 | 315.37
333.2 K | 3.59 | 316.36
338.2 K | – | 318.34
343.2 K | 4.35 | 319.33
348.2 K | – | 321.3
353.2 K | 5.18 | 322.89
358.2 K | – | 323.48

CCOS(=O)(=O)[O-].CCn1cc[n+](C)c1 [1-ethyl-3-methylimidazolium ethyl sulfate]
Details | electrical conductivity, [1] [S/m] | molar heat capacity at constant pressure, [2] [J/K/mol]
293.2 K | 0.31 | –
298.2 K | 0.398 | –
303.2 K | 0.493 | 429.81
308.2 K | 0.603 | 431.7
313.2 K | 0.722 | 435.01
318.2 K | 0.852 | 437.14
323.2 K | 1 | 441.39
328.2 K | 1.17 | 444.46
333.2 K | 1.34 | 447.3
338.2 K | – | 450.13
343.2 K | 1.74 | 452.97
348.2 K | – | 456.51
353.2 K | 2.15 | 461
358.2 K | – | 463.6
